Laboratory results taken from patent publication US5434246A, “Parathyroid hormone derivatives” (Takeda Chemical Industries, Ltd., priority 1992, dated 1995).
Square brackets hold non-standard residues; d marks the D form. Ends that are not written are not given here. Peptide text beside a SMILES is read from it. Orn = NCCC[C@H](N)C(=O)O

Molecular target: T1, PTH receptor (Mus musculus, UniProt P41593)
T1 construct: a mouse cranial bone-derived osteoblast-like cell strain, MC3T3-EI cells; endogenous in cells; host or cells: MC3T3-E1 mouse osteoblast-like cells
T1 sequence (P41593 27-591): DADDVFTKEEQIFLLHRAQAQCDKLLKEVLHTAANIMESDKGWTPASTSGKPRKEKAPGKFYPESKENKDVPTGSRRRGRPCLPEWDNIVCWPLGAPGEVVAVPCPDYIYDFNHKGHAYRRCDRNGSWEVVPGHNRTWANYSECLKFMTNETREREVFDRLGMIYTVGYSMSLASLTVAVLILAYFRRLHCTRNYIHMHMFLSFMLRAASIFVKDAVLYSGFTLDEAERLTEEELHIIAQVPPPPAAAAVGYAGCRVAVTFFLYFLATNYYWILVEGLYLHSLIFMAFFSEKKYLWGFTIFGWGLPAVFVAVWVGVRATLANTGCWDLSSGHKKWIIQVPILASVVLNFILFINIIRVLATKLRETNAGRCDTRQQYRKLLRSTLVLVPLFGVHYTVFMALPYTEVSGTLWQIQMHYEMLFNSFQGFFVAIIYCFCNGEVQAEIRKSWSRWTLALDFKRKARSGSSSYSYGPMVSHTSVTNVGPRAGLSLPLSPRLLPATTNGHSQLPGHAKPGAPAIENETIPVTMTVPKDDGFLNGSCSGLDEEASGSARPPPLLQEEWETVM
Assay: cAMP production in MC3T3-EI osteoblast-like cells (biological activity of PTH(1-34) derivatives)
Type: cell-based
Conditions: 0.01-100 nM derivative, room temperature 30 minutes, hPTH(1-34) standard = 1.00
Procedure: The biological activity of the PTH (1-34) derivatives was evaluated by a modified version of the method reported by Shigeno et al. in The Journal of Biological Chemistry 263, 18369-18377 (1988). A culture solution (Hank's solution, containing 20 mM N-2-hydroxyethylpiperazine-N'-2-ethanesulfonic acid-(HEPES), 0.1% bovine serum albumin and 0.5 mM isobutylmethyl-xanthine) containing a 0.01, 0.1, 1, 10 or 100 nM derivative was added in an amount of 100 μl to a mouse cranial bone-derived osteoblast-like cell strain, MC3T3-EI cells, cultivated on a 96-well multiplate (Nunclon, Nunc), followed by reaction at room temperature for 30 minutes. After addition of 100 μl of 0.2N hydrochloric acid, the mixture was immersed in boiling water for 2.5 minutes, and cyclic adenosine monophosphate (cAMP) produced by a PTH receptor was extracted from the cells. The total cAMP in the culture solution and the cells was assayed using a commercial radioimmunoassay kit (cyclic AMP [^125 I] kit "Du Pont-Daiichi", Daiichi Kagaku Yakuhin).

| Biological Activity, Represented by Relative Activity to hPTH(1-34) | Compound |
| --- | --- |
| 1.00 | CC[C@H](C)[C@H](NC(=O)[C@H](CCC(=O)O)NC(=O)[C@H](CO)NC(=O)[C@@H](NC(=O)[C@@H](N)CO)C(C)C)C(=O)N[C@@H](CCC(N)=O)C(=O)N[C@@H](CC(C)C)C(=O)N[C@@H](CCSC)C(=O)N[C@@H](Cc1c[nH]cn1)C(=O)N[C@@H](CC(N)=O)C(=O)N[C@@H](CC(C)C)C(=O)NCC(=O)N[C@@H](CCCCN)C(=O)N[C@@H](Cc1c[nH]cn1)C(=O)N[C@@H](CC(C)C)C(=O)N[C@@H](CC(N)=O)C(=O)N[C@@H](CO)C(=O)N[C@@H](CCSC)C(=O)N[C@@H](CCC(=O)O)C(=O)N[C@@H](CCCNC(=N)N)C(=O)N[C@H](C(=O)N[C@@H](CCC(=O)O)C(=O)N[C@@H](Cc1c[nH]c2ccccc12)C(=O)N[C@@H](CC(C)C)C(=O)N[C@@H](CCCNC(=N)N)C(=O)N[C@@H](CCCCN)C(=O)N[C@@H](CCCCN)C(=O)N[C@@H](CC(C)C)C(=O)N[C@@H](CCC(N)=O)C(=O)N[C@@H](CC(=O)O)C(=O)N[C@H](C(=O)N[C@@H](Cc1c[nH]cn1)C(=O)N[C@@H](CC(N)=O)C(=O)N[C@@H](Cc1ccccc1)C(=O)O)C(C)C)C(C)C [hPTH(1-34), reference compound] |
| 1.74 | CC[C@H](C)[C@H](NC(=O)[C@H](CCC(=O)O)NC(=O)[C@H](CO)NC(=O)[C@@H](NC(=O)[C@@H](N)CO)C(C)C)C(=O)N[C@@H](CCC(N)=O)C(=O)N[C@@H](CC(C)C)C(=O)N[C@@H](CCSC)C(=O)N[C@@H](Cc1c[nH]cn1)C(=O)N[C@@H](CC(N)=O)C(=O)N[C@@H](CC(C)C)C(=O)NCC(=O)N[C@@H](CCCCN)C(=O)N[C@@H](Cc1c[nH]cn1)C(=O)N[C@@H](CC(C)C)C(=O)N[C@H](C(=O)N[C@@H](CO)C(=O)N[C@@H](CCSC)C(=O)N[C@@H](CCC(=O)O)C(=O)N[C@@H](CCCNC(=N)N)C(=O)N[C@H](C(=O)N[C@@H](CCC(=O)O)C(=O)N[C@@H](Cc1c[nH]c2ccccc12)C(=O)N[C@@H](CC(C)C)C(=O)N[C@@H](CCCNC(=N)N)C(=O)N[C@@H](CCCCN)C(=O)N[C@@H](CCCCN)C(=O)N[C@@H](CC(C)C)C(=O)N[C@@H](CCC(N)=O)C(=O)N[C@@H](CC(=O)O)C(=O)N[C@H](C(=O)N[C@@H](Cc1c[nH]cn1)C(=O)N[C@@H](CC(N)=O)C(=O)N[C@@H](Cc1ccccc1)C(=O)O)C(C)C)C(C)C)[C@@H](C)O [[Thr^16]hPTH(1-34)] |
| 0.41 | SVSEIQLMHNLGKHLNSMERVEWLQQQLQDVHNF [[Gln^25,26,27]hPTH (1-34), [Gln^25,26,27]hPTH(1-34)] |
| 2.16 | SVSEIQLMHNLGKHLRSMERVEWLRKQLQDVHNF [[Arg^16,Gln^27]hPTH(1-34)] |
| 1.82 | CC[C@H](C)[C@H](NC(=O)[C@H](CCC(=O)O)NC(=O)[C@H](CO)NC(=O)[C@@H](NC(=O)[C@@H](N)CO)C(C)C)C(=O)N[C@@H](CCC(N)=O)C(=O)N[C@@H](CC(C)C)C(=O)N[C@@H](CCSC)C(=O)N[C@@H](Cc1c[nH]cn1)C(=O)N[C@@H](CC(N)=O)C(=O)N[C@@H](CC(C)C)C(=O)NCC(=O)N[C@@H](CCCCN)C(=O)N[C@@H](Cc1c[nH]cn1)C(=O)N[C@@H](CC(C)C)C(=O)N[C@@H](CCCN)C(=O)N[C@@H](CO)C(=O)N[C@@H](CCSC)C(=O)N[C@@H](CCC(=O)O)C(=O)N[C@@H](CCCNC(=N)N)C(=O)N[C@H](C(=O)N[C@@H](CCC(=O)O)C(=O)N[C@@H](Cc1c[nH]c2ccccc12)C(=O)N[C@@H](CC(C)C)C(=O)N[C@@H](CCCNC(=N)N)C(=O)N[C@@H](CCCCN)C(=O)N[C@@H](CCC(N)=O)C(=O)N[C@@H](CC(C)C)C(=O)N[C@@H](CCC(N)=O)C(=O)N[C@@H](CC(=O)O)C(=O)N[C@H](C(=O)N[C@@H](Cc1c[nH]cn1)C(=O)N[C@@H](CC(N)=O)C(=O)N[C@@H](Cc1ccccc1)C(=O)O)C(C)C)C(C)C [[Orn^16,Gln^27]hPTH(1-34), [Orn^16,Gln^27]hPTH(1-45)] (H-SVSEIQLMHNLGKHL[Orn]SMERVEWLRKQLQDVHNF-OH) |
| 6.39 | SVSEIQLMHNLGKKKKKMERVEWLRKKLQDVHNF [[Lys^14,15,16,17]hPTH (1-34), [Lys^14,15,16,17]hPTH(1-34)] |
| 2.17 | CC[C@H](C)[C@H](NC(=O)[C@H](CCC(=O)O)NC(=O)[C@@H](C)NC(=O)[C@@H](NC(=O)[C@@H](N)CO)C(C)C)C(=O)N[C@@H](CCC(N)=O)C(=O)N[C@@H](CC(C)C)C(=O)N[C@@H](CCSC)C(=O)N[C@@H](Cc1c[nH]cn1)C(=O)N[C@@H](CC(N)=O)C(=O)N[C@@H](CC(C)C)C(=O)NCC(=O)N[C@@H](CCCCN)C(=O)N[C@@H](Cc1c[nH]cn1)C(=O)N[C@@H](CC(C)C)C(=O)N[C@@H](CC(N)=O)C(=O)N[C@@H](CO)C(=O)N[C@@H](CCSC)C(=O)N[C@@H](CCC(=O)O)C(=O)N[C@@H](CCCNC(=N)N)C(=O)N[C@H](C(=O)N[C@@H](CCC(=O)O)C(=O)N[C@@H](Cc1c[nH]c2ccccc12)C(=O)N[C@@H](CC(C)C)C(=O)N[C@@H](CCCNC(=N)N)C(=O)N[C@@H](CCCCN)C(=O)N[C@@H](CCCCN)C(=O)N[C@@H](CC(C)C)C(=O)N[C@@H](CCC(N)=O)C(=O)N[C@@H](CC(=O)O)C(=O)N[C@H](C(=O)N[C@@H](Cc1c[nH]cn1)C(=O)N[C@@H](CC(N)=O)C(=O)N[C@@H](Cc1ccccc1)C(=O)O)C(C)C)C(C)C [[D-Ala^3]hPTH(1-34)] |
| 1.55 | CC[C@H](C)[C@H](NC(=O)[C@H](CCC(=O)O)NC(=O)[C@H](CO)NC(=O)[C@@H](NC(=O)[C@@H](N)CO)C(C)C)C(=O)N[C@@H](CCC(N)=O)C(=O)N[C@@H](CC(C)C)C(=O)N[C@@H](CCSC)C(=O)N[C@@H](Cc1c[nH]cn1)C(=O)N[C@@H](CC(N)=O)C(=O)N[C@@H](CC(C)C)C(=O)NCC(=O)N[C@@H](CCCCN)C(=O)N[C@@H](Cc1c[nH]cn1)C(=O)N[C@@H](CC(C)C)C(=O)N[C@@H](CCC(=O)O)C(=O)N[C@@H](CO)C(=O)N[C@@H](CCSC)C(=O)N[C@@H](CCC(=O)O)C(=O)N[C@@H](CCCNC(=N)N)C(=O)N[C@H](C(=O)N[C@@H](CCC(=O)O)C(=O)N[C@@H](Cc1c[nH]c2ccccc12)C(=O)N[C@@H](CC(C)C)C(=O)N[C@@H](CCCNC(=N)N)C(=O)N[C@@H](CCCCN)C(=O)N[C@@H](CCCCN)C(=O)N[C@@H](CC(C)C)C(=O)N[C@@H](CCC(N)=O)C(=O)N[C@@H](CC(=O)O)C(=O)N[C@H](C(=O)N[C@@H](Cc1c[nH]cn1)C(=O)N[C@@H](CC(N)=O)C(=O)N[C@@H](Cc1ccccc1)C(=O)O)C(C)C)C(C)C [[Glu^16]hPTH(1-34)] |
| 7.47 | SVSEIQLMHNLGKHKKKMERVEWLRKHLQDVHNF [[Lys^15,16,17,His^27]hPTH (1-34), [Lys^15,16,17,His^27]hPTH(1-34)] |
| 7.62 | SVSEIQLMHNLGKHKKKMERVEWLRKKLQDVHNF [[Lys^15,16,17]hPTH (1-34), [Lys^15,16,17]hPTH(1-34)] |
| 1.49 | SVSEIQLMHNLGKHKKSMERVEWLRKHLQDVHNF [[Lys^15,16,His^27]hPTH(1-34)] |
| 1.19 | SVSEIQLMHNLGKHLNSMERVEWLRQQLQDVHNF [[Gln^26,27]hPTH(1-34)] |
